Tests used:
Experiment in all cases: relative viability (nuclei count vs DMSO), 5 days (fraction); higher = more cells survive
[1] = compound: CN(C)C[C@@H]1CCn2cc(c3ccccc32)C2=C(C(=O)NC2=O)c2cn(c3ccccc23)CCO1 [Ruboxistaurin] + C[C@]1(O)C[C@@H](c2nc(-c3ccc4ccc(-c5ccccc5)nc4c3)c3c(N)nccn32)C1 [Linsitinib] (partner 1 µM)
In short: (§1)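 Relative viability equals treated-well nuclei counts divided by vehicle-well nuclei counts. Counts came from 4× images of lung cancer cell lines grown in 1536-well plates for 5 days after pin-tool dosing on the day after seeding. Dosing used one drug alone or a fixed anchor-drug dose plus five library-drug doses (not always all listed) in √10 steps, and values are medians of duplicate plates.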

[2] = compound: CN(C)C[C@@H]1CCn2cc(c3ccccc32)C2=C(C(=O)NC2=O)c2cn(c3ccccc23)CCO1 [Ruboxistaurin] + O=C(c1cc(Cc2n[nH]c(=O)c3ccccc23)ccc1F)N1CCN(C(=O)C2CC2)CC1 [Olaparib] (partner 8 µM)
In short: as §1

[3] = compound: CN(C)C[C@@H]1CCn2cc(c3ccccc32)C2=C(C(=O)NC2=O)c2cn(c3ccccc23)CCO1 [Ruboxistaurin] + O=C(CCCCCCC(=O)Nc1ccccc1)NO [Vorinostat] (partner 1 µM)
In short: as §1

[4] = compound: CN(C)C[C@@H]1CCn2cc(c3ccccc32)C2=C(C(=O)NC2=O)c2cn(c3ccccc23)CCO1 [Ruboxistaurin] + Cc1nc(Nc2ncc(C(=O)Nc3c(C)cccc3Cl)s2)cc(N2CCN(CCO)CC2)n1 [Dasatinib] (partner 0.075 µM)
In short: as §1

[5] = compound: CN(C)C[C@@H]1CCn2cc(c3ccccc32)C2=C(C(=O)NC2=O)c2cn(c3ccccc23)CCO1 [Ruboxistaurin] + Cc1cc(Nc2cc(N3CCN(C)CC3)nc(Sc3ccc(NC(=O)C4CC4)cc3)n2)n[nH]1 [Tozasertib] (partner 0.1 µM)
In short: as §1

| Cell Line | relative viability ([1]; first compound 0.08 µM) | relative viability ([1]; first compound 0.8 µM) | relative viability ([1]; first compound 2.53 µM) | relative viability ([1]; first compound 8 µM) | relative viability ([2]; first compound 0.08 µM) | relative viability ([2]; first compound 0.8 µM) | relative viability ([2]; first compound 2.53 µM) | relative viability ([2]; first compound 8 µM) | relative viability ([3]; first compound 0.08 µM) | relative viability ([3]; first compound 0.8 µM) | relative viability ([3]; first compound 2.53 µM) | relative viability ([3]; first compound 8 µM) | relative viability ([4]; first compound 0.08 µM) | relative viability ([4]; first compound 0.8 µM) | relative viability ([4]; first compound 2.53 µM) | relative viability ([4]; first compound 8 µM) | relative viability ([5]; first compound 0.08 µM) | relative viability ([5]; first compound 0.8 µM) | relative viability ([5]; first compound 2.53 µM) | relative viability ([5]; first compound 8 µM) |
| --- | --- | --- | --- | --- | --- | --- | --- | --- | --- | --- | --- | --- | --- | --- | --- | --- | --- | --- | --- | --- |
| EMC-BAC-2 | 0.885 | 0.775 | 0.773 | 0.739 | 0.509 | 0.453 | 0.463 | 0.481 | 0.53 | 0.461 | 0.523 | 0.384 | 0.328 | 0.262 | 0.256 | 0.138 | 0.29 | 0.254 | 0.272 | 0.17 |
| EPLC-272H | 1.28 | 1.09 | 1.2 | 1.16 | 0.846 | 0.71 | 0.918 | 0.437 | 0.498 | 0.48 | 0.357 | 0.429 | 0.354 | 0.371 | 0.342 | 0.282 | 0.205 | 0.247 | 0.253 | 0.247 |
| H3255 | 1.09 | 0.953 | 0.943 | 0.931 | 0.613 | 0.574 | 0.592 | 0.655 | 0.717 | 0.717 | 0.815 | 0.898 | 0.495 | 0.353 | 0.347 | 0.335 | 0.658 | 0.603 | 0.714 | 0.836 |
| HARA | 1.15 | 0.922 | 1.08 | 0.657 | 1.01 | 0.895 | 0.819 | 0.538 | 0.724 | 0.494 | 0.535 | 0.546 | 0.216 | 0.232 | 0.228 | 0.3 | 0.0939 | 0.101 | 0.12 | 0.102 |
| HCC-15 | 0.841 | 0.834 | 0.852 | 0.776 | 0.792 | 0.651 | 0.777 | 0.867 | 0.975 | 0.74 | 0.925 | 0.833 | 0.683 | 0.593 | 0.489 | 0.518 | 0.461 | 0.255 | 0.297 | 0.188 |
| HCC-78 | 0.531 | 0.501 | 0.455 | 0.482 | 0.821 | 0.762 | 0.935 | 0.746 | 0.419 | 0.368 | 0.425 | 0.475 | 0.52 | 0.399 | 0.377 | 0.283 | 0.368 | 0.352 | 0.321 | 0.393 |
| HCC-366 | 0.691 | 0.526 | 0.68 | 0.33 | 0.4 | 0.364 | 0.372 | 0.269 | 0.407 | 0.434 | 0.374 | 0.307 | 0.564 | 0.526 | 0.624 | 0.52 | 0.0941 | 0.0617 | 0.084 | 0.0522 |
| HCC-827 | 0.933 | 0.962 | 0.951 | 1 | 0.655 | 0.647 | 0.695 | 0.624 | 0.824 | 0.828 | 0.839 | 0.837 | 0.36 | 0.241 | 0.327 | 0.278 | 0.43 | 0.393 | 0.423 | 0.423 |
| HOP-62 | 0.972 | 0.963 | 0.869 | 1 | 0.499 | 0.443 | 0.541 | 0.611 | 0.669 | 0.648 | 0.686 | 0.679 | 0.746 | 0.628 | 0.634 | 0.673 | 0.362 | 0.299 | 0.352 | 0.424 |
| LC-2-ad | 0.931 | 0.862 | 0.912 | 0.742 | 0.711 | 0.626 | 0.697 | 0.752 | 0.747 | 0.668 | 0.694 | 0.694 | 0.672 | 0.651 | 0.575 | 0.558 | 0.55 | 0.45 | 0.476 | 0.475 |
| LCLC-97TM1 | 0.169 |  | 0.166 | 0.151 | 0.355 | 0.334 | 0.352 | 0.341 | 0.683 | 0.691 | 0.74 | 0.613 | 0.891 | 0.896 | 0.968 | 0.821 | 0.194 | 0.168 | 0.242 | 0.159 |
| LCLC-103H | 1.13 | 0.834 | 0.883 | 1.15 | 0.735 | 0.69 | 0.729 | 0.676 | 0.823 | 0.743 | 0.807 | 0.75 | 0.641 | 0.386 | 0.482 | 0.389 | 0.52 | 0.326 | 0.519 | 0.472 |
| LK-2 | 0.493 | 0.589 | 0.717 | 0.261 | 0.741 | 0.687 | 0.649 | 0.505 | 0.362 | 0.323 | 0.33 | 0.222 | 0.283 | 0.237 | 0.264 | 0.242 | 0.174 | 0.152 | 0.179 | 0.162 |
| LOU-NH91 | 1.11 | 0.902 | 0.994 | 0.883 | 0.926 | 0.87 | 0.941 | 0.949 | 0.954 | 0.868 | 0.958 | 0.878 | 0.612 | 0.503 | 0.56 | 0.528 | 0.744 | 0.509 | 0.674 | 0.76 |
| LU99A | 0.614 | 0.455 | 0.463 | 0.33 | 0.27 | 0.259 | 0.253 | 0.218 | 0.497 | 0.442 | 0.433 | 0.416 | 0.412 | 0.436 | 0.589 | 0.507 | 0.256 | 0.205 | 0.221 | 0.229 |
